Laboratory results from patent US20070197603A1 (published 2007).

Row | Compound | melting point
1 | Cc1cccc(C)c1C1CCN(Cc2cc3ccccc3[nH]2)CC1 | 128 to 130 °C
2 | Cl.OCCn1c(-c2ccccc2)c(CN2CCC(c3c(Cl)cccc3Cl)CC2)c2ccccc21 | 205 to 206 °C
3 | Cl.OCCn1c(CN2CCC(c3c(Cl)cccc3Cl)CC2)cc2ccccc21 | 263 to 265 °C
4 | Cl.Clc1cccc(Cl)c1C1CCN(Cc2cc3ccccc3[nH]2)CC1 | 238 to 240 °C
5 | CCCn1c(-c2ccccc2)c(CN2CCC(c3c(Cl)cccc3Cl)CC2)c2ccccc21.Cl | 150 to 152 °C
6 | Cc1c(CN2CCC(c3c(Cl)cccc3Cl)CC2)[nH]c2ccccc12 | 139 to 141 °C
7 | Cc1[nH]c2ccccc2c1CN1CCC(c2c(Cl)cccc2Cl)CC1 | 168 to 170 °C
8 | Cl.Clc1cccc(Cl)c1C1CCN(Cc2c[nH]c3ccccc23)CC1 | 189 to 190 °C
9 | Clc1cccc(Cl)c1C1CCN(Cc2[nH]c3ccccc3c2-c2ccccc2)CC1 | 162 to 164 °C
10 | Cl.Clc1cccc(Cl)c1C1CCN(Cc2c(-c3ccccc3)[nH]c3ccccc23)CC1 | 169 to 171 °C
11 | Cl.Cn1c(-c2ccccc2)c(CN2CCC(c3c(Cl)cccc3Cl)CC2)c2ccccc21 | 179 to 184 °C (dec.)
12 | Cl.Clc1cccc(Cl)c1C1CCN(Cc2c(-c3ccccc3)n(Cc3ccccc3)c3ccccc23)CC1 | 209 to 210 °C
